Reference: the NIST ThermoML archive (doi:10.1021/je200721d)
Numbers after ± are expanded uncertainties.

Assay: xn = mol fraction of the nth substance listed
Details: Liquid, Vibrating tube method

CCCCCCCCCC [decane] + CCCCCC
Details | mass density [kg/m3]
313.08 K, 1000 kPa, x2 = 0.8991 | 654.3 ± 0.27
313.08 K, 2000 kPa, x2 = 0.8991 | 655.28 ± 0.28
313.08 K, 3000 kPa, x2 = 0.8991 | 656.28 ± 0.29
313.08 K, 4000 kPa, x2 = 0.8991 | 657.3 ± 0.3
313.08 K, 5000 kPa, x2 = 0.8991 | 658.33 ± 0.31
313.08 K, 6000 kPa, x2 = 0.8991 | 659.37 ± 0.31
313.08 K, 7000 kPa, x2 = 0.8991 | 660.42 ± 0.32
313.08 K, 8000 kPa, x2 = 0.8991 | 661.47 ± 0.33
313.08 K, 9000 kPa, x2 = 0.8991 | 662.52 ± 0.34
313.08 K, 10000 kPa, x2 = 0.8991 | 663.56 ± 0.35
313.08 K, 11000 kPa, x2 = 0.8991 | 664.61 ± 0.36
313.08 K, 12000 kPa, x2 = 0.8991 | 665.63 ± 0.37
313.08 K, 13000 kPa, x2 = 0.8991 | 666.66 ± 0.38
313.08 K, 14000 kPa, x2 = 0.8991 | 667.66 ± 0.39
313.08 K, 15000 kPa, x2 = 0.8991 | 668.63 ± 0.4
313.08 K, 16000 kPa, x2 = 0.8991 | 669.61 ± 0.41
313.08 K, 17000 kPa, x2 = 0.8991 | 670.54 ± 0.41
313.08 K, 18000 kPa, x2 = 0.8991 | 671.45 ± 0.42
313.08 K, 19000 kPa, x2 = 0.8991 | 672.34 ± 0.43
313.08 K, 20000 kPa, x2 = 0.8991 | 673.21 ± 0.44
313.08 K, 21000 kPa, x2 = 0.8991 | 674.04 ± 0.45
313.08 K, 22000 kPa, x2 = 0.8991 | 674.91 ± 0.46
313.08 K, 23000 kPa, x2 = 0.8991 | 675.69 ± 0.47
313.08 K, 24000 kPa, x2 = 0.8991 | 676.48 ± 0.48
313.08 K, 25000 kPa, x2 = 0.8991 | 677.31 ± 0.49
313.17 K, 1000 kPa, x2 = 0.2185 | 704.92 ± 0.26
313.17 K, 2000 kPa, x2 = 0.2185 | 705.74 ± 0.26
313.17 K, 3000 kPa, x2 = 0.2185 | 706.66 ± 0.27
313.17 K, 4000 kPa, x2 = 0.2185 | 707.53 ± 0.27
313.17 K, 5000 kPa, x2 = 0.2185 | 708.39 ± 0.28
313.17 K, 6000 kPa, x2 = 0.2185 | 709.25 ± 0.29
313.17 K, 7000 kPa, x2 = 0.2185 | 710.11 ± 0.29
313.17 K, 8000 kPa, x2 = 0.2185 | 710.96 ± 0.3
313.17 K, 9000 kPa, x2 = 0.2185 | 711.8 ± 0.31
313.17 K, 10000 kPa, x2 = 0.2185 | 712.63 ± 0.32
313.17 K, 10990 kPa, x2 = 0.2185 | 713.46 ± 0.32
313.17 K, 12000 kPa, x2 = 0.2185 | 714.27 ± 0.33
313.17 K, 13000 kPa, x2 = 0.2185 | 715.05 ± 0.34
313.17 K, 14000 kPa, x2 = 0.2185 | 715.84 ± 0.35
313.17 K, 15000 kPa, x2 = 0.2185 | 716.63 ± 0.35
313.17 K, 16000 kPa, x2 = 0.2185 | 717.4 ± 0.36
313.17 K, 17000 kPa, x2 = 0.2185 | 718.15 ± 0.37
313.17 K, 18000 kPa, x2 = 0.2185 | 718.88 ± 0.38
313.17 K, 19000 kPa, x2 = 0.2185 | 719.62 ± 0.38
313.17 K, 20000 kPa, x2 = 0.2185 | 720.34 ± 0.39
313.17 K, 21000 kPa, x2 = 0.2185 | 721.06 ± 0.4
313.17 K, 22000 kPa, x2 = 0.2185 | 721.76 ± 0.41
313.17 K, 23000 kPa, x2 = 0.2185 | 722.46 ± 0.42
313.17 K, 24000 kPa, x2 = 0.2185 | 723.13 ± 0.42
313.17 K, 25000 kPa, x2 = 0.2185 | 723.78 ± 0.43
313.18 K, 1000 kPa, x2 = 0.0456 | 713.33 ± 0.25
313.18 K, 1000 kPa, x2 = 0.7524 | 668.32 ± 0.27
313.18 K, 2000 kPa, x2 = 0.0456 | 714.22 ± 0.26
313.18 K, 2000 kPa, x2 = 0.7524 | 669.4 ± 0.27
313.18 K, 3000 kPa, x2 = 0.0456 | 715.11 ± 0.26
313.18 K, 3000 kPa, x2 = 0.7524 | 670.46 ± 0.28
313.18 K, 4000 kPa, x2 = 0.0456 | 715.98 ± 0.27
313.18 K, 4000 kPa, x2 = 0.7524 | 671.5 ± 0.29
313.18 K, 5000 kPa, x2 = 0.0456 | 716.84 ± 0.28
313.18 K, 5000 kPa, x2 = 0.7524 | 672.55 ± 0.3
313.18 K, 6000 kPa, x2 = 0.0456 | 717.69 ± 0.28
313.18 K, 6000 kPa, x2 = 0.7524 | 673.61 ± 0.31
313.18 K, 7000 kPa, x2 = 0.0456 | 718.53 ± 0.29
313.18 K, 7000 kPa, x2 = 0.7524 | 674.58 ± 0.31
313.18 K, 8000 kPa, x2 = 0.0456 | 719.34 ± 0.3
313.18 K, 8000 kPa, x2 = 0.7524 | 675.56 ± 0.32
313.18 K, 9000 kPa, x2 = 0.0456 | 720.15 ± 0.3
313.18 K, 9000 kPa, x2 = 0.7524 | 676.55 ± 0.33
313.18 K, 10000 kPa, x2 = 0.0456 | 720.95 ± 0.31
313.18 K, 10000 kPa, x2 = 0.7524 | 677.5 ± 0.34
313.18 K, 10990 kPa, x2 = 0.0456 | 721.74 ± 0.32
313.18 K, 10990 kPa, x2 = 0.7524 | 678.44 ± 0.35
313.18 K, 12000 kPa, x2 = 0.0456 | 722.51 ± 0.32
313.18 K, 12000 kPa, x2 = 0.7524 | 679.36 ± 0.36
313.18 K, 13000 kPa, x2 = 0.0456 | 723.28 ± 0.33
313.18 K, 13000 kPa, x2 = 0.7524 | 680.27 ± 0.37
313.18 K, 14000 kPa, x2 = 0.0456 | 724.03 ± 0.34
313.18 K, 14000 kPa, x2 = 0.7524 | 681.18 ± 0.38
313.18 K, 15000 kPa, x2 = 0.0456 | 724.78 ± 0.35
313.18 K, 15000 kPa, x2 = 0.7524 | 682.08 ± 0.38
313.18 K, 16000 kPa, x2 = 0.0456 | 725.51 ± 0.35
313.18 K, 16000 kPa, x2 = 0.7524 | 682.96 ± 0.39
313.18 K, 17000 kPa, x2 = 0.0456 | 726.24 ± 0.36
313.18 K, 17000 kPa, x2 = 0.7524 | 683.82 ± 0.4
313.18 K, 18000 kPa, x2 = 0.0456 | 726.96 ± 0.37
313.18 K, 18000 kPa, x2 = 0.7524 | 684.65 ± 0.41
313.18 K, 19000 kPa, x2 = 0.0456 | 727.67 ± 0.38
313.18 K, 19000 kPa, x2 = 0.7524 | 685.47 ± 0.42
313.18 K, 20000 kPa, x2 = 0.0456 | 728.36 ± 0.38
313.18 K, 20000 kPa, x2 = 0.7524 | 686.29 ± 0.43
313.18 K, 21000 kPa, x2 = 0.0456 | 729.05 ± 0.39
313.18 K, 21000 kPa, x2 = 0.7524 | 687.07 ± 0.44
313.18 K, 22000 kPa, x2 = 0.0456 | 729.74 ± 0.4
